Experiments:
[1] = tested on: human P2Y11; experiment: Detection of in vivo ATP signal in P2Y11-split Luc (C-terminal)/Arrestin-split Luc (N-terminal) double knock-in mouse; settings: 50 μL of 1 mM ATP + 15 mg/mL VivoGlo Luciferin subcutaneously, IVIS 10 to 20 minutes after, not detected in single-allele or wild type mice
Description: To a P2Y11-split Luc (C-terminal)/Arrestin-split Luc (N-terminal) double knock-in mouse, 50 μL of a mixture of ATP at a final concentration of 1 mM and 15 mg/mL VivoGlo Luciferin (Promega #P1043) was subcutaneously administered. A luminescent signal intensity was measured with IVIS Spectrum CT (Perkin Elmer) 10 to 20 minutes after the ATP administration. The measurement was performed under conditions of exposure time of 180 sec, with medium binning, and F/stop of 1, and thus the luminescent signal was analyzed in terms of a physical quantity (photons/sec).

[2] = molecular target: T1, human P2Y11 (Homo sapiens, UniProt Q96G91); experiment: In vivo imaging of ATP at known concentration in the double knock-in mouse; settings: 50 μL of 0, 1, 2, 4 or 8 mM ATP + 15 mg/mL VivoGlo Luciferin subcutaneously, IVIS 10 to 20 minutes after, exposure 60 sec
T1 construct: expressed in transfected cells; host or cells: cells of the P2Y11-split Luc (C-terminal)/Arrestin-split Luc (N-terminal) double knock-in mouse (Rosa26 locus): in vivo, and a skin fibroblast line derived from it
T1 sequence (Q96G91 1-374): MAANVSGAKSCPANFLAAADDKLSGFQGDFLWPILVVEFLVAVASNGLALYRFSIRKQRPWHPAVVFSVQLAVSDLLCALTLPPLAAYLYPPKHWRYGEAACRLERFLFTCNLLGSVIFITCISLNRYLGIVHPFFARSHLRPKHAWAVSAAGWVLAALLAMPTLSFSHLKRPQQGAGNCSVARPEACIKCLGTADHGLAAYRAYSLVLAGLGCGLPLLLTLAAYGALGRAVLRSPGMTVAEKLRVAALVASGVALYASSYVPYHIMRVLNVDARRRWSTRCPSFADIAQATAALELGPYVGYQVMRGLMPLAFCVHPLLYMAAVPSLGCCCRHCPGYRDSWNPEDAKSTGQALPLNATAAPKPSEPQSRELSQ
Description: To a P2Y11-split Luc (C-terminal)/Arrestin-split Luc (N-terminal) double knock-in mouse, 50 μL of a mixture of ATP at a final concentration of 0 mM, 1 mM, 2 mM, 4 mM, or 8 mM and 15 mg/mL VivoGlo Luciferin (Promega #P1043) was subcutaneously administered. A luminescent signal intensity was measured with IVIS Spectrum CT (Perkin Elmer) 10 to 20 minutes after the ATP administration. The measurement was performed under conditions of exposure time of 60 sec, with medium binning, and F/stop of 1, and thus the luminescent signal was analyzed in terms of a physical quantity (photons/sec). […] Thus it was confirmed that the mouse functions as a concentration dependent reporter mouse (FIG. 6 and FIG. 7).

[3] = molecular target: T1, human P2Y11; experiment: Detection of in vitro ATP concentration in fibroblasts derived from the double knock-in mouse; format: cell-based; settings: fibroblast from double knock-in mouse; 0 to 1000 μM ATP + VivoGlo Luciferin; IVIS, exposure 180 sec
Description: A skin tissue was collected from a P2Y11-split Luc (C-terminal)/Arrestin-split Luc (N-terminal) double knock-in mouse, and was sliced with a scalpel in a culture fluid, and the resultant was covered with a cover glass with a dermis side in contact with a bottom of a culture dish, and was cultured in a D-MEM medium supplemented with 10% FBS and 1×NEAA. Fibroblasts confirmed to have migration/growth of cells were collected by a trypsin treatment, and the resultant was repeatedly passaged to establish a fibroblast cell line.
The fibroblast derived from the P2Y-11 split Luc (C-terminal)/Arrestin-split Luc (N-terminal) double knock-in mouse was seeded in a 24-well culture plate. On the next day, ATP at a final concentration of 0 to 1000 μM and VivoGlo Luciferin (Promega #P1043) were added thereto, and a luminescent signal was detected with IVIS Spectrum CT (Perkin Elmer). The measurement was performed under conditions of exposure time of 180 sec, with medium binning, and F/Stop of 1, and thus the luminescent signal was analyzed in terms of a physical quantity (photons/sec).

Nc1ncnc2c1ncn2[C@@H]1O[C@H](COP(=O)(O)OP(=O)(O)OP(=O)(O)O)[C@@H](O)[C@H]1O [ATP]
luminescent signal due to the ATP administration [1]: a luminescent signal due to the ATP administration was detected | luminescent signal intensity [2]: an ATP concentration-dependent signal intensity was detected | luminescent signal intensity [3]: a concentration-dependent signal intensity was detected
